In general, IC50 refers to the point on the concentration scale where inhibition reaches its midpoint.

The values that follow come from US5962500A, “Insulin sensitivity with angiotensin II receptor blocking imidazoles” (priority 1994, dated 1999).

Where a name gives a salt, the structure may show the parent alone.

Assay [1] relates to awake rats made hypertensive by ligation of the left renal artery. The assay can be described thus: Antihypertensive effects in renal hypertensive rats. It is filed as in vivo, rat. Here is the method: This procedure increases blood pressure by increasing renin production with consequent elevation of AII levels. Compounds are administered orally at 100 mg/kg and/or intravenously via a cannula in the jugular vein at 10 mg/kg. Arterial blood pressure is continuously measured directly through a carotid artery cannula and recorded using a pressure transducer and a polygraph. Blood pressure levels after treatment are compared to pretreatment levels to determine the antihypertensive effects of the compounds (See Table 1).
Compounds listed in Table 2 were tested in the same manner as described for Table 1, except that in the test for antihypertensive effects in renal hypertensive rats, the compounds were administered orally at 30 mg/kg and intravenously at 3 mg/kg.

Assay [2] deals with AII receptor (rat adrenal cortical microsomes). Kind of assay: Angiotensin II receptor binding (displacement of 3H-AII). The conditions noted are these: 2 nM 3H-AII, 1 hour at room temperature. Here is the method: The hormone angiotensin II (AII) produces numerous biological responses (e.g. vasoconstriction) through stimulation of its receptors on cell membranes. […] The reaction mixture contained rat adrenal cortical microsomes (source of AII receptor) in Tris buffer and 2 nM of ^3 H-AII with or without potential AII antagonist. This mixture was incubated for 1 hour at room temperature and the reaction was subsequently terminated by rapid filtraton and rinsing through glass micro-fibre filter. Receptor-bound ^3 H-AII trapped in filter was quantitiated by scintillation counting.

Assay [3] deals with renal vasoconstrictor effect of NSAIDs. The following applies: cited from earlier work.
Assay [4] has as its system effects of AII on the blood pressure of pithed rats. The following applies: cited from earlier work.
The next assay concerns arterial pressure. The conditions noted are these: cited from earlier work.
Another assay concerns Plasma renin activity. Kind of assay: Plasma renin activity (PRA) in conscious dogs. Format: in vivo, dog. The conditions noted are these: furosemide 10 mg/kg im at 18 and 2 hours before; three dogs; before furosemide 1.5±0.5. Here is the method:
(§1) The hypotensive effects of 2-butyl-4-chloro-1-[2'-(1H-tetrazol-5-yl)biphenyl-4-yl)methyl]-5-hydroxymethylimidazole sodium salt were compared before and after furosemide administration to conscious dogs. […] Plasma renin activity (PRA) in these animals was 1.5±0.5 ng AI/ml/hr. Four days later, furosemide was given to three of these dogs at 10 mg/kg im at 18 and 2 hours before the experiment and increased PRA to 19.9±7.2 ng AI/ml/hr. […] Thus a combined therapy of these two classes of drugs will be likely to increase the response rate to therapy among hypertensive patients.

In a further assay the test system is conscious dogs. Kind of assay: Hypotensive effects in conscious dogs before and after furosemide. It is filed as in vivo, dog. Here is the method:
as §1

A further assay deals with pressor response to AII. The assay can be described thus: Inhibition of the pressor response to AII in conscious dogs. It is filed as in vivo, dog. The procedure: as §1
Assay [5] deals with patients with severe hypertension. Kind of assay: Blood pressure and heart rate (oscillometric). Format: in vivo, human. The following applies: after Losartan. The procedure: (§2) At the time of the study only a three day wash-out period was allowed due to the severity of their hypertension.
(§3) A euglycemic glucose clamp procedure was performed three days after the initial screening, and after withdrawl from previous antihypertensive medications.
(§4) Fasting glucose was determined enzymatically, using a glucose dehydrogenase method and a Cobas Bio analyzer (Roche, Basel Switzerland). A Reflolux II (Mannheim Boehringer GmbH, Mannheim, Germany) was utilized to measure glucose concentration during the glucose clamp procedure (within run coefficient of variation <3% in our laboratory). Fructosamine was determined by calorimetric method. Insulin was measured by radioimmunoassay technique, using a specific antibody from Linco Research Inc. (St. Louis, Mo., USA). The lower limit of detection is 5 mU/l cross reactivity with proinsulin less than 1% and intra-assay coefficient of variation below 9% at all levels. Plasma catecholamines from specialized venous blood were measured by the radioenzymatic technique of Peuler Johnson as detailed in Kjelsen et al., Scan. J. Clin. Invest. 1993:42:217-23. Blood pressure and heart rate were measured oscillometrically with an Omega 1000™ Adult/Pediatric Blood Pressure Recorder (INVIVO Research Laboratories Inc., Tulsa Okla., USA).

Assay [6] shares this test system. Kind of assay: Baseline plasma catecholamines (radioenzymatic). Format: in vivo, human. Here is the method: as §2, §3
The euglycemic hyperinsulinemic glucose "clamp" was performed using a modification of the method described by DeFronzo, et al. Am. J. Physiol. 1979:237: E214-23, as previously detailed by Moan, et al., Metabolism, in press. Insulin was infused at a fixed rate of 1 mU/kg/min. This technique for measuring the glucose disposal rate has a day-to-day coefficient of less than 5% percent. […] The steady state levels of insulin varied from one person to another, and as a result the insulin sensitivity index was also calculated. This index is a ratio of the glucose disposal rate to the mean level of insulin during the last 20 minutes of the glucose clamp multiplied by 100, and is given arbitrary units. Blood for baseline adrenaline and noradrenaline were sampled in duplicate and the results averaged.
as §4

Assay [7] has the same test system. Kind of assay: Fasting glucose, fructosamine and insulin. Format: in vivo, human. The following applies: after Losartan. Here is the method:
as §2, §3, §4

Assay [8] has the same test system. The assay can be described thus: Euglycemic hyperinsulinemic glucose clamp (insulin sensitivity). Format: in vivo, human. The procedure:
as §2, §3
The euglycemic hyperinsulinemic glucose "clamp" was performed using a modification of the method described by DeFronzo, et al. Am. J. Physiol. 1979:237: E214-23, as previously detailed by Moan, et al., Metabolism, in press. Insulin was infused at a fixed rate of 1 mU/kg/min. […] This index is a ratio of the glucose disposal rate to the mean level of insulin during the last 20 minutes of the glucose clamp multiplied by 100, and is given arbitrary units. Blood for baseline adrenaline and noradrenaline were sampled in duplicate and the results averaged.

For the compound `CCCCc1nc(Cl)c(C(=O)O)n1Cc1ccc(-c2ccccc2-c2nn[nH]n2)cc1` [EXP-3174], in [1] (Table 2, 3 mg/kg), the “Antihypertensive Effects in Renal Hypertensive Rats, Intravenous Activity” value is “+ (Significant decrease in blood pressure at 3.0 mg/kg or less)”. Moreover, the “Antihypertensive Effects in Renal Hypertensive Rats, Oral Activity” value in assay [1] (Table 2, 30 mg/kg) is listed as “+ (Significant decrease in blood pressure at 30 mg/kg or less)”. This compound gave an IC50 in assay [2] of 11 nM.
With `C[C@H](CS)C(=O)N1CCC[C@H]1C(=O)O` [captopril], the “reversal of renal vasoconstrictor effect of indomethacin” value in assay [3] (dogs with non-hypotensive hemorrhage) is “reverse the renal vasoconstrictor effect of indomethacin”.
As to `CNCC(=O)N[C@@H](CCCN=C(N)N)C(=O)N[C@H](C(=O)N[C@@H](Cc1ccc(O)cc1)C(=O)N[C@H](C(=O)N[C@@H](Cc1cnc[nH]1)C(=O)N1CCC[C@H]1C(=O)N[C@@H](C)C(=O)O)C(C)C)C(C)C` [Saralasin, [Sar^1, Ala^8] AII], in assay [3] (dogs), the “inhibition of renal vasoconstrictor effect of indomethacin” value is reported as “inhibit the renal vasoconstrictor effect” and the “inhibition of renal vasoconstrictor effect of meclofenamate” value is listed as “inhibit the renal vasoconstrictor effect”. For the same compound, in assay [4] (pithed rats), the “antagonism of the actions of AII” value is “one of the most potent competitive antagonists of the actions of AII”. Also, in assay [4] (rat, in vivo), the agonistic actions entry is recorded as “possesses agonistic actions of its own”. Further, in the assay on arterial pressure (oral doses), the oral efficacy result is on record as “oral doses being ineffective”. Moreover, the “duration of pharmacological effects” value in the assay on arterial pressure (parenteral administration) is listed as “relatively short-lasting”. Also, the “effect on arterial pressure” value in the assay on arterial pressure (pressure dependent on circulating AII) was “lower arterial pressure in mammals and man”. Besides, in the assay on arterial pressure (pressure not sustained by AII), the pressor effects result was “generally elicits pressor effects when the pressure is not sustained by AII”.
Take `NS(=O)(=O)c1cc(C(=O)O)c(NCc2ccco2)cc1Cl` [furosemide]: the “Plasma renin activity (PRA)” value in the assay with Plasma renin activity was found to be 19.9±7.2 ng AI/ml/hr.
As to `CCCCc1nc(Cl)c(CO)n1Cc1ccc(-c2ccccc2-c2nn[nH]n2)cc1` [2-butyl-4-chloro-1-[2'-(1H-tetrazol-5-yl)biphenyl-4-yl)methyl]-5-hydroxymethylimidazole sodium salt], the blood pressure lowering result is “significant decrease in blood pressure in a dose-dependent manner” in the assay on conscious dogs (conscious dogs after furosemide 10 mg/kg im at 18 and 2 hours before, cumulative iv, same doses); “did not lower blood pressure” in the assay on conscious dogs (normotensive conscious dogs, before furosemide, cumulative iv 0.3 to 3 mg/kg, n=4). Also, the “inhibition of pressor response to AII” value was “inhibited the pressor response to AII at the two higher doses” with pressor response to AII (after furosemide, cumulative iv, same doses) and “effective in inhibiting the pressor response to AII” in the assay on pressor response to AII (before furosemide, AII 0.1 μg/kg iv, 10 min post dose, cumulative iv 0.3 to 3 mg/kg).
Turning to `CCCCc1nc(Cl)c(CO)n1Cc1ccc(-c2ccccc2-c2nnn[nH]2)cc1` [Losartan, 2-n-butyl-4-chloro-5-hydroxymethyl-1-[(2'-(1H-tetrazol-5-yl)biphenyl-4-yl)methyl]imidazole], in [5] (before treatment 65±9, n.s.), the baseline heart rate was 68±12 beats/min. In addition, the “baseline mean blood pressure” value in [5] (before treatment 132±10, p<0.05) was 119±13 mmHg. The “decrease in baseline plasma noradrenaline” value in assay [6] (Losartan vs before treatment, p<0.05) is reported as 40%. In addition, the plasma adrenaline in assay [6] (after Losartan, before treatment 0.23±0.10, n.s.) amounted to 0.22 ± 0.11 nmol/L. Further, in assay [6] (after Losartan, before treatment 1.87±0.53, p<0.05), the baseline plasma noradrenaline was found to be 1.11 ± 0.13 nmol/L. In [7] (baseline 5.0±0.3, non-significant), the fasting glucose turned out to be 4.8 ± 0.1 mmol/L. This compound also displayed a fasting serum insulin in assay [7] (baseline 12±3, unchanged) of 12±2 mU/l. Besides, in assay [7] (baseline 227±18, non-significant), the fructosamine worked out at 217 ± 11 µmol/L. Moreover, the “Antihypertensive Effects in Renal Hypertensive Rats, Intravenous Activity” value in [1] (Table 1, 10 mg/kg) is reported as “+ (Significant decrease in blood pressure at 10 mg/kg or less)”. Besides, the “Antihypertensive Effects in Renal Hypertensive Rats, Oral Activity” value in assay [1] (Table 1, 100 mg/kg) is “+ (Significant decrease in blood pressure at 100 mg/kg or less)”. Besides, the “increase in glucose disposal rate” value in assay [8] (Losartan vs baseline, p<0.05) amounted to 27%. The glucose disposal rate in [8] (after Losartan 50-100 mg oral once a day, average about 6 weeks, baseline 6.2±2.6, p<0.05) was determined as 7.9±2.6 mg/kg×min. In assay [8] (insulin infused 1 mU/kg/min, end of Losartan monotherapy, first clamp 85±11), the “average plasma insulin level during second clamp” value is 80±7 mU/l.
